Legend:
cocklebur = experiment: Test B preemergence/postemergence greenhouse plant response rating 0 to 10; type: in vivo, Xanthium pensylvanicum; conditions: 0 to 10 scale
In short: (§1)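 Test chemicals were sprayed onto freshly planted seed and, concurrently, onto young plants between the one and four leaf stage. After a twelve- to sixteen-day greenhouse period, each species was visually compared with untreated controls.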

morningglory = experiment: as above; type: in vivo, Ipomoea hederacea; conditions: 0 to 10 scale
In short: as §1

barnyardgrass = experiment: Test C flood test plant response rating 0 to 100; type: in vivo, Echinochloa crus-galli; conditions: for Plant response rating Barnyardgrass 2: flood test species listed under POSTEMERGENCE, 62 g/ha, 0 to 100 scale
In short: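 Compounds in non-phytotoxic solvent applied preemergence to sandy loam one day after planting, postemergence at the 1–4 leaf stage, or to ~2.5 cm floodwater over silt loam.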

pigweed = experiment: Test C preemergence/postemergence greenhouse plant response rating 0 to 100; type: in vivo, Amaranthusretroflexus; conditions: for Plant response rating Pigweed: 62 g/ha, 0 to 100 scale
In short: (§2)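 Compounds in non-phytotoxic solvent went onto sandy loam before emergence (seeded one day earlier) or onto plants at the one-to-four leaf stage. Duck salad was treated via flood water (~2.5 cm, maintained) over silt loam.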

sugar beet = experiment: Test B preemergence/postemergence greenhouse plant response rating 0 to 10; type: in vivo, Beta vulgaris; conditions: 0 to 10 scale
In short: as §1

cotton = experiment: Test C preemergence/postemergence greenhouse plant response rating 0 to 100; type: in vivo, Gossypium hirsutum; conditions: for Plant response rating, Cotton: 62 g/ha, 0 to 100 scale
In short: as §2

wild oat = experiment: Test B preemergence/postemergence greenhouse plant response rating 0 to 10; type: in vivo, Avena fatua; conditions: 0 to 10 scale
In short: as §1

blackgrass [1] = experiment: as above; type: in vivo, Alopecurus myosuroides; conditions: 0 to 10 scale
In short: as §1

bedstraw = experiment: as above; type: in vivo, Galium aparine; conditions: 0 to 10 scale
In short: as §1

wheat = experiment: Test C preemergence/postemergence greenhouse plant response rating 0 to 100; type: in vivo, Triticum aestivum; conditions: for Plant response rating, Wheat: 62 g/ha, 0 to 100 scale
In short: as §2

blackgrass [2] = experiment: as above; type: in vivo, Alopecurus myosuroides; conditions: for Plant response rating, Blackgrass: 62 g/ha, 0 to 100 scale
In short: as §2

ryegrass = experiment: as above; type: in vivo, Lolium multiflorum; conditions: for Plant response rating Ryegrass: 62 g/ha, 0 to 100 scale
In short: as §2

[3] = POSTEMERGENCE section, flood test, Rate 1 g/ha
[4] = POSTEMERGENCE section, flood test, Rate 4 g/ha
[5] = Rate 16 g/ha, under POSTEMERGENCE head (flood test species)

CCN1C(=O)COc2cc(F)c(-c3nn4c(c3Cl)CCCC4)cc21 [Compound 54]
Plant response rating, Cocklebur (cocklebur; POSTEMERGENCE, Rate 10 g/ha): 9 | Plant response rating, Cocklebur (cocklebur; POSTEMERGENCE, Rate 50 g/ha): 10 | Plant response rating, Cocklebur (cocklebur; PREEMERGENCE, Rate 10 g/ha): 0 | Plant response rating, Cocklebur (cocklebur; PREEMERGENCE, Rate 50 g/ha): 0 | Plant response rating, Morningglory (morningglory; POSTEMERGENCE, Rate 10 g/ha): 9 | Plant response rating, Morningglory (morningglory; POSTEMERGENCE, Rate 50 g/ha): 9 | Plant response rating, Morningglory (morningglory; PREEMERGENCE, Rate 50 g/ha): 3 | Plant response rating (0 to 100), Barnyardgrass 2 (barnyardgrass; [3]): 0 | Plant response rating (0 to 100), Barnyardgrass 2 (barnyardgrass; [4]): 10 | Plant response rating (0 to 100), Barnyardgrass 2 (barnyardgrass; [5]): 95 | Plant response rating Barnyardgrass 2 (barnyardgrass): 100 | Plant response rating Pigweed (pigweed; POSTEMERGENCE): 100 | Plant response rating (0 to 100), Pigweed (pigweed; POSTEMERGENCE, Rate 1 g/ha): 95 | Plant response rating (0 to 100), Pigweed (pigweed; POSTEMERGENCE, Rate 4 g/ha): 100 | Plant response rating Pigweed (pigweed; PREEMERGENCE): 100 | Plant response rating (0 to 100), Pigweed (pigweed; PREEMERGENCE, Rate 1 g/ha): 0 | Plant response rating (0 to 100), Pigweed (pigweed; PREEMERGENCE, Rate 4 g/ha): 90 | Plant response rating (0 to 100), Pigweed (pigweed; Rate 16 g/ha, POSTEMERGENCE): 100 | Plant response rating (0 to 100), Pigweed (pigweed; Rate 16 g/ha, PREEMERGENCE): 100 | Plant response rating, Sugar beet (sugar beet; POSTEMERGENCE, Rate 10 g/ha): 10 | Plant response rating, Sugar beet (sugar beet; POSTEMERGENCE, Rate 50 g/ha): 10 | Plant response rating, Sugar beet (sugar beet; PREEMERGENCE, Rate 50 g/ha): 9 | Plant response rating, Cotton (cotton; POSTEMERGENCE): 100 | Plant response rating (0 to 100), Cotton (cotton; POSTEMERGENCE, Rate 1 g/ha): 70 | Plant response rating (0 to 100), Cotton (cotton; POSTEMERGENCE, Rate 4 g/ha): 95 | Plant response rating, Cotton (cotton; PREEMERGENCE): 40 | Plant response rating (0 to 100), Cotton (cotton; PREEMERGENCE, Rate 1 g/ha): 0 | Plant response rating (0 to 100), Cotton (cotton; PREEMERGENCE, Rate 4 g/ha): 0 | Plant response rating (0 to 100), Cotton (cotton; Rate 16 g/ha, POSTEMERGENCE): 100 | Plant response rating (0 to 100), Cotton (cotton; Rate 16 g/ha, PREEMERGENCE): 0 | Plant response rating, Wild oat (wild oat; POSTEMERGENCE, Rate 10 g/ha): 4 | Plant response rating, Wild oat (wild oat; POSTEMERGENCE, Rate 50 g/ha): 7 | Plant response rating, Wild oat (wild oat; PREEMERGENCE, Rate 50 g/ha): 2 | Plant response rating, Blackgrass (blackgrass [1]; POSTEMERGENCE, Rate 10 g/ha): 5 | Plant response rating, Blackgrass (blackgrass [1]; POSTEMERGENCE, Rate 50 g/ha): 6 | Plant response rating, Blackgrass (blackgrass [1]; PREEMERGENCE, Rate 10 g/ha): 3 | Plant response rating, Blackgrass (blackgrass [1]; PREEMERGENCE, Rate 50 g/ha): 3 | Plant response rating, Bedstraw (bedstraw; POSTEMERGENCE, Rate 10 g/ha): 9 | Plant response rating, Bedstraw (bedstraw; POSTEMERGENCE, Rate 50 g/ha): 9 | Plant response rating, Bedstraw (bedstraw; PREEMERGENCE, Rate 10 g/ha): 8 | Plant response rating, Bedstraw (bedstraw; PREEMERGENCE, Rate 50 g/ha): 9 | Plant response rating, Wheat (wheat; POSTEMERGENCE): 60 | Plant response rating (0 to 100), Wheat (wheat; POSTEMERGENCE, Rate 1 g/ha): 20 | Plant response rating (0 to 100), Wheat (wheat; POSTEMERGENCE, Rate 4 g/ha): 40 | Plant response rating (0 to 100), Wheat (wheat; PREEMERGENCE, Rate 1 g/ha): 0 | Plant response rating (0 to 100), Wheat (wheat; PREEMERGENCE, Rate 4 g/ha): 0 | Plant response rating (0 to 100), Wheat (wheat; Rate 16 g/ha, POSTEMERGENCE): 60 | Plant response rating (0 to 100), Wheat (wheat; Rate 16 g/ha, PREEMERGENCE): 10 | Plant response rating, Blackgrass (blackgrass [2]; POSTEMERGENCE): 60 | Plant response rating (0 to 100), Blackgrass (blackgrass [2]; POSTEMERGENCE, Rate 1 g/ha): 30 | Plant response rating (0 to 100), Blackgrass (blackgrass [2]; POSTEMERGENCE, Rate 4 g/ha): 40 | Plant response rating, Blackgrass (blackgrass [2]; PREEMERGENCE): 70 | Plant response rating (0 to 100), Blackgrass (blackgrass [2]; PREEMERGENCE, Rate 1 g/ha): 0 | Plant response rating (0 to 100), Blackgrass (blackgrass [2]; PREEMERGENCE, Rate 4 g/ha): 10 | Plant response rating (0 to 100), Blackgrass (blackgrass [2]; Rate 16 g/ha, POSTEMERGENCE): 50 | Plant response rating (0 to 100), Blackgrass (blackgrass [2]; Rate 16 g/ha, PREEMERGENCE): 20 | Plant response rating Ryegrass (ryegrass; POSTEMERGENCE): 60 | Plant response rating (0 to 100), Ryegrass (ryegrass; POSTEMERGENCE, Rate 1 g/ha): 10 | Plant response rating (0 to 100), Ryegrass (ryegrass; POSTEMERGENCE, Rate 4 g/ha): 30 | Plant response rating Ryegrass (ryegrass; PREEMERGENCE): 70 | Plant response rating (0 to 100), Ryegrass (ryegrass; PREEMERGENCE, Rate 1 g/ha): 0 | Plant response rating (0 to 100), Ryegrass (ryegrass; PREEMERGENCE, Rate 4 g/ha): 0 | Plant response rating (0 to 100), Ryegrass (ryegrass; Rate 16 g/ha, POSTEMERGENCE): 40 | Plant response rating (0 to 100), Ryegrass (ryegrass; Rate 16 g/ha, PREEMERGENCE): 30

COCN1C(=O)COc2cc(F)c(-c3nn4c(c3Cl)CCCC4)cc21 [Compound 55]
Plant response rating, Cocklebur (cocklebur; POSTEMERGENCE, Rate 10 g/ha): 10 | Plant response rating, Cocklebur (cocklebur; POSTEMERGENCE, Rate 50 g/ha): 10 | Plant response rating, Cocklebur (cocklebur; PREEMERGENCE, Rate 50 g/ha): 2 | Plant response rating, Morningglory (morningglory; POSTEMERGENCE, Rate 10 g/ha): 10 | Plant response rating, Morningglory (morningglory; POSTEMERGENCE, Rate 50 g/ha): 10 | Plant response rating, Morningglory (morningglory; PREEMERGENCE, Rate 50 g/ha): 8 | Plant response rating (0 to 100), Barnyardgrass 2 (barnyardgrass; [3]): 10 | Plant response rating (0 to 100), Barnyardgrass 2 (barnyardgrass; [4]): 60 | Plant response rating (0 to 100), Barnyardgrass 2 (barnyardgrass; [5]): 90 | Plant response rating Barnyardgrass 2 (barnyardgrass): 100 | Plant response rating Pigweed (pigweed; POSTEMERGENCE): 100 | Plant response rating (0 to 100), Pigweed (pigweed; POSTEMERGENCE, Rate 1 g/ha): 100 | Plant response rating (0 to 100), Pigweed (pigweed; POSTEMERGENCE, Rate 4 g/ha): 100 | Plant response rating (0 to 100), Pigweed (pigweed; Rate 16 g/ha, POSTEMERGENCE): 100 | Plant response rating, Sugar beet (sugar beet; POSTEMERGENCE, Rate 10 g/ha): 10 | Plant response rating, Sugar beet (sugar beet; POSTEMERGENCE, Rate 50 g/ha): 10 | Plant response rating, Sugar beet (sugar beet; PREEMERGENCE, Rate 50 g/ha): 10 | Plant response rating, Cotton (cotton; POSTEMERGENCE): 100 | Plant response rating (0 to 100), Cotton (cotton; POSTEMERGENCE, Rate 1 g/ha): 90 | Plant response rating (0 to 100), Cotton (cotton; POSTEMERGENCE, Rate 4 g/ha): 100 | Plant response rating (0 to 100), Cotton (cotton; Rate 16 g/ha, POSTEMERGENCE): 100 | Plant response rating, Wild oat (wild oat; POSTEMERGENCE, Rate 10 g/ha): 6 | Plant response rating, Wild oat (wild oat; POSTEMERGENCE, Rate 50 g/ha): 7 | Plant response rating, Wild oat (wild oat; PREEMERGENCE, Rate 50 g/ha): 9 | Plant response rating, Blackgrass (blackgrass [1]; POSTEMERGENCE, Rate 10 g/ha): 5 | Plant response rating, Blackgrass (blackgrass [1]; POSTEMERGENCE, Rate 50 g/ha): 7 | Plant response rating, Blackgrass (blackgrass [1]; PREEMERGENCE, Rate 10 g/ha): 3 | Plant response rating, Blackgrass (blackgrass [1]; PREEMERGENCE, Rate 50 g/ha): 7 | Plant response rating, Bedstraw (bedstraw; POSTEMERGENCE, Rate 10 g/ha): 9 | Plant response rating, Bedstraw (bedstraw; POSTEMERGENCE, Rate 50 g/ha): 10 | Plant response rating, Bedstraw (bedstraw; PREEMERGENCE, Rate 10 g/ha): 3 | Plant response rating, Bedstraw (bedstraw; PREEMERGENCE, Rate 50 g/ha): 10 | Plant response rating, Wheat (wheat; POSTEMERGENCE): 60 | Plant response rating (0 to 100), Wheat (wheat; POSTEMERGENCE, Rate 1 g/ha): 30 | Plant response rating (0 to 100), Wheat (wheat; POSTEMERGENCE, Rate 4 g/ha): 40 | Plant response rating (0 to 100), Wheat (wheat; Rate 16 g/ha, POSTEMERGENCE): 50 | Plant response rating, Blackgrass (blackgrass [2]; POSTEMERGENCE): 60 | Plant response rating (0 to 100), Blackgrass (blackgrass [2]; POSTEMERGENCE, Rate 1 g/ha): 30 | Plant response rating (0 to 100), Blackgrass (blackgrass [2]; POSTEMERGENCE, Rate 4 g/ha): 40 | Plant response rating (0 to 100), Blackgrass (blackgrass [2]; Rate 16 g/ha, POSTEMERGENCE): 50 | Plant response rating Ryegrass (ryegrass; POSTEMERGENCE): 60 | Plant response rating (0 to 100), Ryegrass (ryegrass; POSTEMERGENCE, Rate 1 g/ha): 10 | Plant response rating (0 to 100), Ryegrass (ryegrass; POSTEMERGENCE, Rate 4 g/ha): 30 | Plant response rating (0 to 100), Ryegrass (ryegrass; Rate 16 g/ha, POSTEMERGENCE): 40
